The source of these data is the NIST ThermoML archive (doi:10.1016/j.tca.2018.04.002).

The conditions of series [1]: Crystal.
Series [2] can be described thus: Molar enthalpy of transition or fusion. The following applies: Crystal; DSC.

Numbers after ± are expanded uncertainties.

In the case of `CCCCCCCCCCCC(=O)O` [dodecanoic acid], the thermal conductivity in series [1] (296.15 K, 101.33 kPa, Hot disk method) was 0.394 ± 0.081 W/m/K. In series [1] (DSC), the Triple point temperature came out at 320.35 ± 4.1 K. In addition, in series [2], the “Molar enthalpy of transition or fusion” value was 10.4 ± 2.08 kcal/mol.
